Laboratory results: paper PMC9826432 (Environmental Toxicology and Chemistry, 2022)

Experiments:
aquatic organisms = conditions: threshold for effluents, tenfold dilution assumed; ref Loos et al., 2018; cited from earlier work
[1] = biological target: T1, human estrogen receptor α (ERα) (Homo sapiens, UniProt P03372); test: lyticase Yeast Estrogen Screen; format: cell-based; conditions: L‐YES; based on PC10 values, 3 replicates, considering molecular weights
T1 sequence (P03372 1-595): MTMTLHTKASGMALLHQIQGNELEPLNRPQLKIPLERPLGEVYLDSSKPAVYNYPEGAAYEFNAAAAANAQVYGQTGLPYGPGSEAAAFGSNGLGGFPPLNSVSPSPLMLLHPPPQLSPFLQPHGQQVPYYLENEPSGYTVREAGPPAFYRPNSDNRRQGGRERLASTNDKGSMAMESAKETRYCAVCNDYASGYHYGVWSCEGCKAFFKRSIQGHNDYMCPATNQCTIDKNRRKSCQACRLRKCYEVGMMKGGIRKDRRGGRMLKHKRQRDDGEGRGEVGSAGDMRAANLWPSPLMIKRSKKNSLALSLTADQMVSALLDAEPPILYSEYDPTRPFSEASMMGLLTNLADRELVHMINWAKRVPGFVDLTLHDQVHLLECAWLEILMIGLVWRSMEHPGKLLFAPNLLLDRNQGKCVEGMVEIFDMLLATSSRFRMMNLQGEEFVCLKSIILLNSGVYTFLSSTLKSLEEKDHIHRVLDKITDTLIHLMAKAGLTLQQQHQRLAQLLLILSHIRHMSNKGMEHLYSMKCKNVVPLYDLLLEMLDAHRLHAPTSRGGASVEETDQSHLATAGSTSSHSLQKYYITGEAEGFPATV

[2] = biological target: T1, human estrogen receptor α (ERα); test: ERα‐CALUX human cell-based reporter gene assay; conditions: based on PC10 values, 3 replicates, considering molecular weights

SMILES | 10× diluted PNEC (aquatic organisms) [ng/L] | REP (relative estrogenic potency in comparison to 17β‐estradiol) [1] | REP (relative estrogenic potency in comparison to 17β‐estradiol) [2]
C#C[C@]1(O)CC[C@H]2[C@@H]3CCc4cc(O)ccc4[C@H]3CC[C@@]21C [EE2, 17α‐ethinylestradiol] | 0.35 | – | –
CC(C)(c1ccc(O)cc1)c1ccc(O)cc1 [BPA, bisphenol A] | – | 4.5E−05 | 4.2E−05
